Species on record: Rattus norvegicus
Test: Open TG-GATES - Regimen: Single
Type: toxicity, organism-based, Sprague-Dawley
Parameters: regimen Single, gender Male, age 6 weeks
Settings: in vivo, po, 100 mg/kg, route gavage, dose level Low; for APTT / Bas / Eos / Fbg / Hb / Ht / Lym / MCH / MCHC / MCV / Mono / Neu / PT / Plat / RBC / Ret / WBC: tissue Blood; for KIDNEY_L / KIDNEY_R / KIDNEY_TOTAL: tissue Kidney; for LIVER: tissue Liver; for A/G / ALP / ALT / AST / BUN / CRE / Ca / Cl / DBIL / GLC / IP / K / LDH / Na / PL / RALB / TBIL / TC / TG / TP / gamma-GTP: tissue Plasma

COC1=CC(=O)C[C@@H](C)[C@]12Oc1c(Cl)c(OC)cc(OC)c1C2=O [GRISEOFULVIN]
TERMINAL_BW (3 h): 211.4 g | APTT (3 h): 18.7 s | Bas (3 h): 0% | Eos (3 h): 0.8% | Fbg (3 h): 213 mg/dL | Hb (3 h): 13 g/dL | Ht (3 h): 37.9% | Lym (3 h): 77% | MCH (3 h): 21.6 pg | MCHC (3 h): 34.3% | MCV (3 h): 63.2 fL | Mono (3 h): 2.8% | Neu (3 h): 19% | PT (3 h): 13 s | Plat (3 h): 121.7 x10_4/uL | RBC (3 h): 600 x10_4/ul | Ret (3 h): 8% | WBC (3 h): 116.5 x10_2/uL | KIDNEY_L (3 h): 0.9 g | KIDNEY_R (3 h): 1 g | KIDNEY_TOTAL (3 h): 1.9 g | LIVER (3 h): 9.4 g | A/G (3 h): 1.7 | ALP (3 h): 1005.8 IU/L | ALT (3 h): 37.8 IU/L | AST (3 h): 66.8 IU/L | BUN (3 h): 10.2 mg/dL | CRE (3 h): 0.3 mg/dL | Ca (3 h): 10.9 mg/dL | Cl (3 h): 104.2 meq/L | DBIL (3 h): 0.2 mg/dL | GLC (3 h): 181.4 mg/dL | IP (3 h): 8.8 mg/dL | K (3 h): 3.7 meq/L | LDH (3 h): 130.4 IU/L | Na (3 h): 141.6 meq/L | PL (3 h): 164 mg/dL | RALB (3 h): 3.4 g/dL | TBIL (3 h): 0.3 mg/dL | TC (3 h): 80.6 mg/dL | TG (3 h): 131.4 mg/dL | TP (3 h): 5.4 g/dL | gamma-GTP (3 h): 0.8 IU/L | TERMINAL_BW (6 h): 209.8 g | APTT (6 h): 17.8 s | Bas (6 h): 0% | Eos (6 h): 1% | Fbg (6 h): 218 mg/dL | Hb (6 h): 13.3 g/dL | Ht (6 h): 38.8% | Lym (6 h): 75.6% | MCH (6 h): 22 pg | MCHC (6 h): 34.3% | MCV (6 h): 64.2 fL | Mono (6 h): 3% | Neu (6 h): 20% | PT (6 h): 13 s | Plat (6 h): 135.7 x10_4/uL | RBC (6 h): 604.8 x10_4/ul | Ret (6 h): 8% | WBC (6 h): 100.3 x10_2/uL | KIDNEY_L (6 h): 0.9 g | KIDNEY_R (6 h): 0.9 g | KIDNEY_TOTAL (6 h): 1.9 g | LIVER (6 h): 9.1 g | A/G (6 h): 1.8 | ALP (6 h): 1063.4 IU/L | ALT (6 h): 38.6 IU/L | AST (6 h): 70.8 IU/L | BUN (6 h): 10 mg/dL | CRE (6 h): 0.4 mg/dL | Ca (6 h): 10.8 mg/dL | Cl (6 h): 103.4 meq/L | DBIL (6 h): 0.094 mg/dL | GLC (6 h): 200.4 mg/dL | IP (6 h): 9.7 mg/dL | K (6 h): 4 meq/L | LDH (6 h): 179.4 IU/L | Na (6 h): 141 meq/L | PL (6 h): 148.4 mg/dL | RALB (6 h): 3.4 g/dL | TBIL (6 h): 0.2 mg/dL | TC (6 h): 80.8 mg/dL | TG (6 h): 48.6 mg/dL | TP (6 h): 5.4 g/dL | gamma-GTP (6 h): 1.6 IU/L | TERMINAL_BW (9 h): 207.5 g | APTT (9 h): 18.1 s | Bas (9 h): 0% | Eos (9 h): 1% | Fbg (9 h): 222.6 mg/dL | Hb (9 h): 13.2 g/dL | Ht (9 h): 38.8% | Lym (9 h): 74.8% | MCH (9 h): 21.4 pg | MCHC (9 h): 34.1% | MCV (9 h): 62.9 fL | Mono (9 h): 2.2% | Neu (9 h): 22% | PT (9 h): 13.3 s | Plat (9 h): 123.9 x10_4/uL | RBC (9 h): 617.8 x10_4/ul | Ret (9 h): 7.5% | WBC (9 h): 96 x10_2/uL | KIDNEY_L (9 h): 1 g | KIDNEY_R (9 h): 0.9 g | KIDNEY_TOTAL (9 h): 1.9 g | LIVER (9 h): 8.6 g | A/G (9 h): 1.7 | ALP (9 h): 994.6 IU/L | ALT (9 h): 34.4 IU/L | AST (9 h): 64.2 IU/L | BUN (9 h): 9.8 mg/dL | CRE (9 h): 0.3 mg/dL | Ca (9 h): 10.4 mg/dL | Cl (9 h): 103.6 meq/L | DBIL (9 h): 0.078 mg/dL | GLC (9 h): 199.6 mg/dL | IP (9 h): 10.3 mg/dL | K (9 h): 3.9 meq/L | LDH (9 h): 101 IU/L | Na (9 h): 142 meq/L | PL (9 h): 138.2 mg/dL | RALB (9 h): 3.4 g/dL | TBIL (9 h): 0.1 mg/dL | TC (9 h): 72.6 mg/dL | TG (9 h): 48 mg/dL | TP (9 h): 5.4 g/dL | gamma-GTP (9 h): 1.2 IU/L | TERMINAL_BW (24 h): 224.8 g | APTT (24 h): 19.6 s | Bas (24 h): 0% | Eos (24 h): 1% | Fbg (24 h): 222.4 mg/dL | Hb (24 h): 13.4 g/dL | Ht (24 h): 40.6% | Lym (24 h): 77.6% | MCH (24 h): 21.5 pg | MCHC (24 h): 33.1% | MCV (24 h): 64.8 fL | Mono (24 h): 3.2% | Neu (24 h): 17.4% | PT (24 h): 13.1 s | Plat (24 h): 117.6 x10_4/uL | RBC (24 h): 626.6 x10_4/ul | Ret (24 h): 7.2% | WBC (24 h): 107.9 x10_2/uL | KIDNEY_L (24 h): 1 g | KIDNEY_R (24 h): 1 g | KIDNEY_TOTAL (24 h): 2 g | LIVER (24 h): 10.8 g | A/G (24 h): 1.5 | ALP (24 h): 926.8 IU/L | ALT (24 h): 41.8 IU/L | AST (24 h): 69.4 IU/L | BUN (24 h): 14.4 mg/dL | CRE (24 h): 0.4 mg/dL | Ca (24 h): 11 mg/dL | Cl (24 h): 103.4 meq/L | DBIL (24 h): 0.1 mg/dL | GLC (24 h): 215.8 mg/dL | IP (24 h): 8.5 mg/dL | K (24 h): 4.2 meq/L | LDH (24 h): 146.6 IU/L | Na (24 h): 141.8 meq/L | PL (24 h): 136.4 mg/dL | RALB (24 h): 3.3 g/dL | TBIL (24 h): 0.2 mg/dL | TC (24 h): 71 mg/dL | TG (24 h): 95 mg/dL | TP (24 h): 5.5 g/dL | gamma-GTP (24 h): 1.4 IU/L

Source: ChEMBL document CHEMBL3885861, “Open TG-GATES”
